The values below come from patent publication US11174245B2, “Benzimidazole compounds and derivatives as EGFR inhibitors” (Boehringer Ingelheim International GmbH, priority 2018, dated 2021).

Molecules are shown by their SMILES.

Sequence of EGFR (mutated) 695-1022, T790M, C797S, L858R (P00533 695-1022 T790M/C797S/L858R): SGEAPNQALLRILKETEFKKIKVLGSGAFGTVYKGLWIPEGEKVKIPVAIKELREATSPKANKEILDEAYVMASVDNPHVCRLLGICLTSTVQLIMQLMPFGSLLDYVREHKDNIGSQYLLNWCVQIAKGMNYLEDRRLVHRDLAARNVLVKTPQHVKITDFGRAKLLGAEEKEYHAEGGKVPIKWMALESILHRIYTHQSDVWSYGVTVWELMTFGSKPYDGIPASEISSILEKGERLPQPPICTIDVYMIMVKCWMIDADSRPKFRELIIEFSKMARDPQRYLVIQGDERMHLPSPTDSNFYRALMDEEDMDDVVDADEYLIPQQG
Sequence of EGFR wt (P00533 25-1210): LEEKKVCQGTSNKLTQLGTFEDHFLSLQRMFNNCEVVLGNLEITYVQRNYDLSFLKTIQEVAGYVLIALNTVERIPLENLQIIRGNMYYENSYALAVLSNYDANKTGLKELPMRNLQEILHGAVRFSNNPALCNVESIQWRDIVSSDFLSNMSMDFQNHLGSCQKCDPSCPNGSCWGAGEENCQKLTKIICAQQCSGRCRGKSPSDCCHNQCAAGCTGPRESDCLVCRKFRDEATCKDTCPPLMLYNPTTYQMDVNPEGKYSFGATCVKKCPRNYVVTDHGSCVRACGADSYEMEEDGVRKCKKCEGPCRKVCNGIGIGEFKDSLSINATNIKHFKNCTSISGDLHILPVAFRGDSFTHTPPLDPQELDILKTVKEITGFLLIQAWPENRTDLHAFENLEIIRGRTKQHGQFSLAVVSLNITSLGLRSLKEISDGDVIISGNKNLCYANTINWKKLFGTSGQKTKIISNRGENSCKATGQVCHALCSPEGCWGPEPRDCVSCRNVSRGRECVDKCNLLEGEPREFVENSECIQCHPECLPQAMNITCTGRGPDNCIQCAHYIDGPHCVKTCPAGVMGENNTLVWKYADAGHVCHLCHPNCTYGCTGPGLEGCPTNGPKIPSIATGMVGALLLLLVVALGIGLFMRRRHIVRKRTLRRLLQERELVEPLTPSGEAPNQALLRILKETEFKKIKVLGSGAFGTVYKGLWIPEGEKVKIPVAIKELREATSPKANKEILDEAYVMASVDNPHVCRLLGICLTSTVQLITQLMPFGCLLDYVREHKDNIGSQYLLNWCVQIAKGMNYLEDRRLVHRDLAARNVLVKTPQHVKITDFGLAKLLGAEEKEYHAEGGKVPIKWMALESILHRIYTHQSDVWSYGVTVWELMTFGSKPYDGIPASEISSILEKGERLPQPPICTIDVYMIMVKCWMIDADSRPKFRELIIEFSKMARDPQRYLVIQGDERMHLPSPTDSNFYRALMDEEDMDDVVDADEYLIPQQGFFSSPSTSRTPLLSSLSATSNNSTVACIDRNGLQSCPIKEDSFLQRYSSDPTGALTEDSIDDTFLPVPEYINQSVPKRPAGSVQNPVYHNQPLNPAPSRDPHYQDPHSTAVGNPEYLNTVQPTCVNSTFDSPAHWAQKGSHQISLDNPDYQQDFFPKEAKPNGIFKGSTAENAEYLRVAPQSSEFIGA

One test deals with EGFR del19 T790M C797S protein in Ba/F3 cells (Homo sapiens, UniProt P00533, C797S/DEL746-750/T790M). Description: pEGFR assay (AlphaScreen Surefire, EGFR Tyr1068 phosphorylation). The test is classed as cell-based.
Sequence of EGFR del19 T790M C797S protein in Ba/F3 cells (P00533 with tags, fused parts or gaps C797S/DEL746-750/T790M limits assumed): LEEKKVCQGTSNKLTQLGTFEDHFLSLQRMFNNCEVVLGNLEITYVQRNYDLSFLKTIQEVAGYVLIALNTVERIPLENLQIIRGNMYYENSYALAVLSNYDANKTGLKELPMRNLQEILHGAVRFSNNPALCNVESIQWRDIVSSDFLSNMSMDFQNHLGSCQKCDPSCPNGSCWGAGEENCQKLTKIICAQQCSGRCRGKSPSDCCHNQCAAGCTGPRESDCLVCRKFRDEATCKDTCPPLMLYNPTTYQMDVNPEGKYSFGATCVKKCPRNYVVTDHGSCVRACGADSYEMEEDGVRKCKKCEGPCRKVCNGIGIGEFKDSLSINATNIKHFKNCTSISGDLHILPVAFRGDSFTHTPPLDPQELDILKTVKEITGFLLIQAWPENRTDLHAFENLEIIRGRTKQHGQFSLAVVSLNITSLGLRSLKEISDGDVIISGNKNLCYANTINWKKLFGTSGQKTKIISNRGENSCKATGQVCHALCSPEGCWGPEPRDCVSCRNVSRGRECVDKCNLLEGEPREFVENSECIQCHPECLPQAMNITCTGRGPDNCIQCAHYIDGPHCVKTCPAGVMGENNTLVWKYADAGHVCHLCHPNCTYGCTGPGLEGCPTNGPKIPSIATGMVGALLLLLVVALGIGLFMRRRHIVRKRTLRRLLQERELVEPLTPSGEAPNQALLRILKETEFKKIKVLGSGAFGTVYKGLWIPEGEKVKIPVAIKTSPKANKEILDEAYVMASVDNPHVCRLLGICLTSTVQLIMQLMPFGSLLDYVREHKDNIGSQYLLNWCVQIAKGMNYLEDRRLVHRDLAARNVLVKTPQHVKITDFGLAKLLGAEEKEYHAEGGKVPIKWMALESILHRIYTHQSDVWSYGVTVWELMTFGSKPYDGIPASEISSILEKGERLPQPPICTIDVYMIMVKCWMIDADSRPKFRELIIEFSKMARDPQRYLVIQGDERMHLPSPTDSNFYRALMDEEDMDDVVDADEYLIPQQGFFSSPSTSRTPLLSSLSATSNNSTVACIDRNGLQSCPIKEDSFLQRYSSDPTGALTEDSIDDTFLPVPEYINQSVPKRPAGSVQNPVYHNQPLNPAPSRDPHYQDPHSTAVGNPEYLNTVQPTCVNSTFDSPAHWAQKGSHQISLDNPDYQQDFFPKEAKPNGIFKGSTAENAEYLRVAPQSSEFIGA
Settings: not given
The procedure: Transduced cells were selected using puromycin. Following selection, IL-3 was withdrawn and IL-3 independent cells cultured. p-EGFR Tyr1068 was determined using the AlphaScreen Surefire pEGF Receptor (Tyr1068) Assay (PerkinElmer, TGRERS). […] Subsequently, 60.000 cells/well in 60 μL were added. Cells were incubated with compound for 4 h at 37° C. […] The mixture was incubated at room temperature with shaking (700 rpm) for 20 min. After centrifugation, 4 μL of the lysate were transferred to Proxiplates. […] Plates were shaken for 1 min (1400 rpm) and incubated for 2 h at room temperature in the dark.
The results of the assay are provided as IC50 values (see table 12).
In general terms: Bead proximity is the source of the signal in Alpha formats.
One may read the IC50 as the point on the concentration scale where inhibition reaches its midpoint. Turning to `Cc1ccc2c(c1)[nH]/c(=N\C(=O)c1ccnc(-c3cnn4cccnc34)c1)n2[C@H]1CC[C@@H](O)CC1` [I-110], half-maximal inhibition (IC50) required 1 nM.

As to `Cc1ccc2c(c1)[nH]/c(=N\C(=O)c1ccnc(-c3cccc(CN(C)C)c3)c1)n2[C@H]1CC[C@@H](O)CC1` [I-111], the IC50 amounted to 4 nM.

In the case of `Cn1cc(-c2cc(C(=O)/N=c3\[nH]c4ccccc4n3[C@H]3CCC[C@@H](O)C3)ccn2)cn1` [I-112], the concentration for half-maximal inhibition (IC50) was determined as 13 nM.

As to `CN(C)Cc1cccc(-c2cc(C(=O)/N=c3\[nH]c4ccccc4n3[C@H]3CC[C@@H](O)CC3)ccn2)c1` [I-114], the IC50 came out at 2 nM.

Regarding `O=C(/N=c1\[nH]c2ccccc2n1[C@H]1CC[C@@H](O)CC1)c1ccnc(-c2cnn3cccnc23)c1` [I-115], half-maximal inhibition (IC50) was put at 1 nM.

With `Cn1cc(-c2cc(C(=O)/N=c3\[nH]c4ccccc4n3[C@H]3CCC[C@H](O)C3)ccn2)cn1` [I-116], 1 nM corresponded to half-maximal inhibition (IC50).

Turning to `COc1ccccc1-c1cc(C(=O)/N=c2\[nH]c3ccccc3n2[C@H]2CCC[C@@H](O)C2)ccn1` [I-118], 3 nM corresponded to half-maximal inhibition (IC50).

`Cn1cc(-c2cc(C(=O)/N=c3\[nH]c4ccccc4n3[C@H]3CCC[C@@H](O)C3)ccn2)cn1` [I-126] had an IC50 of 6 nM.

In turn, `Cn1cc(-c2cc(C(=O)/N=c3\[nH]c4ccccc4n3[C@@H]3CCC[C@H](O)C3)ccn2)cn1` [I-128] gave an IC50 of 7 nM.

As for `CC(C)(O)Cn1/c(=N/C(=O)c2ccnc(-c3cccnc3)c2)[nH]c2cc(CC(=O)N3CCCCC3)ccc21` [I-130], the IC50 stood at 5 nM.

As for `Cn1cc(-c2cc(C(=O)/N=c3\[nH]c4cc(CN5CCOCC5)ccc4n3[C@H]3CC[C@@H](O)CC3)cc(F)n2)cn1` [I-135], the IC50 worked out at 2 nM.

With `O=C(/N=c1\[nH]c2ccccc2n1[C@H]1CC[C@@H](O)CC1)c1ccnc(-c2ccccc2F)c1` [I-141], the half-inhibitory concentration (IC50) was 2 nM.

In turn, `COc1ccccc1-c1cc(C(=O)/N=c2\[nH]c3ccccc3n2[C@@H]2CC[C@H](O)[C@H](O)C2)ccn1` [I-144] had an IC50 of 3 nM.

Turning to `Cn1cc(-c2cc(C(=O)/N=c3\[nH]c4cc(CN5CCOCC5)ccc4n3[C@H]3CC[C@@H](O)CC3)cc(C#N)n2)cn1` [I-145], half-maximal inhibition (IC50) was put at 3 nM.

In turn, `Cn1cc(-c2cc(C(=O)/N=c3\[nH]c4ccccc4n3[C@H]3CC[C@@H](O)CC3)cc(Cl)n2)cn1` [I-146] yielded a half-maximal inhibitory concentration (IC50) of 5 nM.

`COc1ccccc1-c1cc(C(=O)/N=c2\[nH]c3cc(CN4CCOCC4)ccc3n2[C@H]2CCC[C@@H](O)C2)ccn1` [I-148] showed an IC50 of 4 nM.

For `COc1ccccc1-c1cc(C(=O)/N=c2\[nH]c3ccccc3n2[C@H]2CC[C@H](O)[C@H](O)C2)ccn1` [I-149], 4 nM corresponded to half-maximal inhibition (IC50).

As for `O=C(/N=c1\[nH]c2ccccc2n1[C@H]1CC[C@@H](O)CC1)c1ccnc(-c2coc3cccnc23)c1` [I-156], the IC50 turned out to be 5 nM.

Another test addresses EGFR (mutated) 695-1022, T790M, C797S, L858R (Homo sapiens (Human), UniProt P00533, C797S/L858R/T790M). In words: Biochemical EGFR inhibition assay (TR-FRET, poly-GT substrate), EGFR T790M C797S L858R. Conditions: read-out: LR_TM_CS (5 μM ATP) IC50; 5 μM ATP. The procedure:
(§1) Biochemical EGFR Inhibition Assays
(§2) Initially, the inhibitory effect of compounds according to the invention is measured in biochemical assays which measure the phosphorylation activity of EGFR enzyme forms on poly-GT substrate in the presence of different concentrations of ATP (5 μM and 100 μM final assay concentration).
(§3) The following enzyme forms of EGFR are representative examples that can be used in these assays at the given concentrations:
(§4) For the chosen highest assay concentration of 100 μM, 150 nL of compound solution is transferred from a 10 mM DMSO compound stock solution. A series of eleven fivefold dilutions per compound is transferred to the assay plate, compound dilutions are tested in duplicates. DMSO is added as backfill to a total volume of 150 nL. The assay runs on a fully automated robotic system.
(§5) These biochemical EGFR enzyme form compound dose-response assays quantify the kinase activity via phosphorylation of a tagged poly-GT substrate. The results of the assay are provided as IC50 values.
In general terms: Time-resolved FRET reads energy transfer from a long-lived donor to a nearby acceptor.
As for `Cn1cc(-c2cc(C(=O)/N=c3\[nH]c4ccccc4n3[C@H]3CCC[C@@H](O)C3)ccn2)cn1` [I-112], the IC50 worked out at 3.1 nM.

With `Cn1cc(-c2cc(C(=O)/N=c3\[nH]c4ccccc4n3[C@H]3CCC[C@H](O)C3)ccn2)cn1` [I-116], the half-inhibitory concentration (IC50) is 0.7 nM.

Turning to `COc1ccccc1-c1cc(C(=O)/N=c2\[nH]c3ccccc3n2[C@H]2CCC[C@@H](O)C2)ccn1` [I-118], the IC50 is 0.7 nM.

Take `Cn1cc(-c2cc(C(=O)/N=c3\[nH]c4ccccc4n3[C@H]3CCC[C@@H](O)C3)ccn2)cn1` [I-126]: the IC50 was 3.1 nM.

With `Cn1cc(-c2cc(C(=O)/N=c3\[nH]c4ccccc4n3[C@@H]3CCC[C@H](O)C3)ccn2)cn1` [I-128], the IC50 was 4 nM.

As for `Cn1cc(-c2cc(C(=O)/N=c3\[nH]c4cc(CN5CCOCC5)ccc4n3[C@H]3CC[C@@H](O)CC3)cc(F)n2)cn1` [I-135], the IC50 was determined as 0.8 nM.

As to `O=C(/N=c1\[nH]c2ccccc2n1[C@H]1CC[C@@H](O)CC1)c1ccnc(-c2ccccc2F)c1` [I-141], the half-inhibitory concentration (IC50) was found to be 2 nM.

Consider `COc1ccccc1-c1cc(C(=O)/N=c2\[nH]c3ccccc3n2[C@@H]2CC[C@H](O)[C@H](O)C2)ccn1` [I-144], for which the IC50 is 6.9 nM.

Regarding `Cn1cc(-c2cc(C(=O)/N=c3\[nH]c4cc(CN5CCOCC5)ccc4n3[C@H]3CC[C@@H](O)CC3)cc(C#N)n2)cn1` [I-145], the IC50 was 1.7 nM.

As to `Cn1cc(-c2cc(C(=O)/N=c3\[nH]c4ccccc4n3[C@H]3CC[C@@H](O)CC3)cc(Cl)n2)cn1` [I-146], the IC50 was found to be 2.8 nM.

Regarding `COc1ccccc1-c1cc(C(=O)/N=c2\[nH]c3cc(CN4CCOCC4)ccc3n2[C@H]2CCC[C@@H](O)C2)ccn1` [I-148], the IC50 came out at 3.3 nM.

For the molecule `COc1ccccc1-c1cc(C(=O)/N=c2\[nH]c3ccccc3n2[C@H]2CC[C@H](O)[C@H](O)C2)ccn1` [I-149], the IC50 worked out at 8.5 nM.

As for `O=C(/N=c1\[nH]c2ccccc2n1[C@H]1CC[C@@H](O)CC1)c1ccnc(-c2coc3cccnc23)c1` [I-156], the IC50 was found to be 13.3 nM.

The test is the same for the next values; noted with them: read-out: LR_TM_CS (100 μM ATP) IC50; 100 μM ATP.
As to `Cc1ccc2c(c1)[nH]/c(=N\C(=O)c1ccnc(-c3cnn4cccnc34)c1)n2[C@H]1CC[C@@H](O)CC1` [I-110], the half-inhibitory concentration (IC50) turned out to be 3.7 nM.

As to `Cc1ccc2c(c1)[nH]/c(=N\C(=O)c1ccnc(-c3cccc(CN(C)C)c3)c1)n2[C@H]1CC[C@@H](O)CC1` [I-111], the IC50 was determined as 10.3 nM.

Regarding `CN(C)Cc1cccc(-c2cc(C(=O)/N=c3\[nH]c4ccccc4n3[C@H]3CC[C@@H](O)CC3)ccn2)c1` [I-114], the IC50 was determined as 18.6 nM.

In the case of `O=C(/N=c1\[nH]c2ccccc2n1[C@H]1CC[C@@H](O)CC1)c1ccnc(-c2cnn3cccnc23)c1` [I-115], the IC50 was found to be 5.8 nM.

Regarding `CC(C)(O)Cn1/c(=N/C(=O)c2ccnc(-c3cccnc3)c2)[nH]c2cc(CC(=O)N3CCCCC3)ccc21` [I-130], the IC50 came out at 178 nM.

The next test addresses EGFR wt (Homo sapiens (Human), UniProt P00533). In words: Biochemical EGFR inhibition assay (TR-FRET, poly-GT substrate), EGFR wt. The settings on record: read-out: wt (5 μM ATP) IC50; 5 μM ATP. The method, then:
as §1, §2, §3, §4, §5
Turning to `Cn1cc(-c2cc(C(=O)/N=c3\[nH]c4ccccc4n3[C@H]3CCC[C@@H](O)C3)ccn2)cn1` [I-112], the IC50 is 777 nM.

For the molecule `Cn1cc(-c2cc(C(=O)/N=c3\[nH]c4ccccc4n3[C@H]3CCC[C@H](O)C3)ccn2)cn1` [I-116], the IC50 was determined as 104 nM.

Take `COc1ccccc1-c1cc(C(=O)/N=c2\[nH]c3ccccc3n2[C@H]2CCC[C@@H](O)C2)ccn1` [I-118]: the IC50 worked out at 34.5 nM.

For the molecule `Cn1cc(-c2cc(C(=O)/N=c3\[nH]c4ccccc4n3[C@H]3CCC[C@@H](O)C3)ccn2)cn1` [I-126], the IC50 came out at 305 nM.

In the case of `Cn1cc(-c2cc(C(=O)/N=c3\[nH]c4ccccc4n3[C@@H]3CCC[C@H](O)C3)ccn2)cn1` [I-128], the IC50 was found to be 1130 nM.

Turning to `Cn1cc(-c2cc(C(=O)/N=c3\[nH]c4cc(CN5CCOCC5)ccc4n3[C@H]3CC[C@@H](O)CC3)cc(F)n2)cn1` [I-135], the concentration for half-maximal inhibition (IC50) is 225 nM.

For the molecule `O=C(/N=c1\[nH]c2ccccc2n1[C@H]1CC[C@@H](O)CC1)c1ccnc(-c2ccccc2F)c1` [I-141], the IC50 amounted to 312 nM.

`COc1ccccc1-c1cc(C(=O)/N=c2\[nH]c3ccccc3n2[C@@H]2CC[C@H](O)[C@H](O)C2)ccn1` [I-144]: the IC50 came out at 110 nM.

`Cn1cc(-c2cc(C(=O)/N=c3\[nH]c4cc(CN5CCOCC5)ccc4n3[C@H]3CC[C@@H](O)CC3)cc(C#N)n2)cn1` [I-145]: the IC50 is 397 nM.

In the case of `Cn1cc(-c2cc(C(=O)/N=c3\[nH]c4ccccc4n3[C@H]3CC[C@@H](O)CC3)cc(Cl)n2)cn1` [I-146], the IC50 is 1540 nM.

Turning to `COc1ccccc1-c1cc(C(=O)/N=c2\[nH]c3cc(CN4CCOCC4)ccc3n2[C@H]2CCC[C@@H](O)C2)ccn1` [I-148], the IC50 came to 77.8 nM.

As to `COc1ccccc1-c1cc(C(=O)/N=c2\[nH]c3ccccc3n2[C@H]2CC[C@H](O)[C@H](O)C2)ccn1` [I-149], the IC50 came out at 148 nM.

Regarding `O=C(/N=c1\[nH]c2ccccc2n1[C@H]1CC[C@@H](O)CC1)c1ccnc(-c2coc3cccnc23)c1` [I-156], the IC50 stood at 3150 nM.

Still in this test, the particulars now being: read-out: wt (100 μM ATP) IC50; 100 μM ATP.
For the molecule `Cc1ccc2c(c1)[nH]/c(=N\C(=O)c1ccnc(-c3cnn4cccnc34)c1)n2[C@H]1CC[C@@H](O)CC1` [I-110], the IC50 amounted to 4420 nM.

On to `Cc1ccc2c(c1)[nH]/c(=N\C(=O)c1ccnc(-c3cccc(CN(C)C)c3)c1)n2[C@H]1CC[C@@H](O)CC1` [I-111], for which the IC50 is 7040 nM.

Turning to `CN(C)Cc1cccc(-c2cc(C(=O)/N=c3\[nH]c4ccccc4n3[C@H]3CC[C@@H](O)CC3)ccn2)c1` [I-114], the IC50 amounted to 6650 nM.

As to `O=C(/N=c1\[nH]c2ccccc2n1[C@H]1CC[C@@H](O)CC1)c1ccnc(-c2cnn3cccnc23)c1` [I-115], the IC50 stood at 2420 nM.

For the molecule `CC(C)(O)Cn1/c(=N/C(=O)c2ccnc(-c3cccnc3)c2)[nH]c2cc(CC(=O)N3CCCCC3)ccc21` [I-130], the IC50 is above 100000 nM.
